According to patent publication US20170128366A1, “PHARMACEUTICAL FORMULATIONS OF CHELATING AGENTS AS A METAL REMOVAL TREATMENT SYSTEM” (ZONEONE PHARMA, INC., priority 2013, published 2017):

Assays:
[1] = cited from earlier work
[2] = in vivo, cited from earlier work
[3] = patients who take deferasirox; cited from earlier work
[4] = Active loading of DFO or doxorubicin into liposomes without membrane modifier, effect of temperature; assay type: physicochemical; conditions: 10 min, pH 6.5
Protocol: Active loading of DFO using no ethanol (or other membrane modifier) was done using liposomes composed of either a fluid-phase lipid (egg PC) or a gel-phase lipid (HSPC), specifically, egg PC liposomes (3:2 Chol, 0.5 M ammonium sulfate, 90 nm) or HSPC liposomes (3:2 Chol, 250 mM ammonium sulfate, 90 nm) were remote loaded with DFO at a temperature range of 40-120° C. (pH 8.0) for either 10 min or 30 min. […] The target drug to lipid ratio was 170 g DFO/mol PL. After the DFO was loaded the tubes were rapidly cooled to room temperature. Unencapsulated DFO was removed by dialysis at 4° C., and drug/PL concentrations were analyzed by HPLC as described in paragraph [0108].
This experiment was done in the absence of a chemical modifier. Liposomes were composed of either a fluid-phase lipid (egg PC) or a gel-phase lipid (HSPC), specifically, egg PC liposomes (3:2 Chol, 0.5 M ammonium sulfate, 90 nm) or HSPC liposomes (3:2 Chol, 0.25 M ammonium sulfate, 90 nm) were remote loaded with DFO or doxorubicin at a temperature range between 40-120° C. for 10 min. Doxorubicin concentration in the loading solution was 5 mg/mL and a target drug to lipid ratio of 170 g DFO/mol PL. DFO was loaded at pH 8 while doxorubicin was loaded at pH 6.5. Unencapsulated drug was removed by dialysis at 4° C., and drug/PL concentrations were analyzed by HPLC as described in paragraph [0108].

SMILES | solubility [1] | water solubility [1] | absorption after oral administration / from the gastro-intestinal tract [2] | clearance from the circulation [2] | risk of renal and hepatic failure [3] | active loading efficiency ([4]; HSPC liposomes (3:2 Chol, 0.25 M ammonium sulfate), 60° C. and above) | active loading ([4]; HSPC liposomes, 40° C.) | active loading ([4]; egg PC liposomes (3:2 Chol, 0.5 M ammonium sulfate), 30-110° C.)
O=C(O)c1ccc(-n2nc(-c3ccccc3O)nc2-c2ccccc2O)cc1 [deferasirox] | less than 2 mg/mL | very low water-solubility | well absorbed | cleared from the circulation slowly | higher risk |  |  | 
COc1cccc2c1C(=O)c1c(O)c3c(c(O)c1C2=O)C[C@@](O)(C(=O)CO)C[C@@H]3O[C@H]1C[C@H](N)[C@H](O)[C@H](C)O1 [doxorubicin] |  |  |  |  |  | > 90% | loaded very poorly | high efficiency
CC(=O)N(O)CCCCCNC(=O)CCC(=O)N(O)CCCCCNC(=O)CCC(=O)N(O)CCCCCN [DFO, Deferoxamine] |  | very water-soluble | poorly absorbed | rapidly cleared |  |  |  | 
